Assay results as given in patent US8877747B2, “Indenone derivative and pharmaceutical composition comprising same” (Korea Research Institute of Chemical Technology, priority 2009, dated 2014).
Where a name gives a salt, the structure may show the parent alone.

System: MC3T3-E1 cells
Experiment: ALP activity, differentiation of osteoblast cells
Assay type: cell-based
Conditions: Mus musculus, MC3T3-E1, 144 h; MC3T3E1 cells treated with 10 μM compound and OF; relates activity to OF-only group (100%); higher = more efficacious
Description: To examine the effects of the inventive indenone derivatives on the differentiation and activation of osteoblast cells, the activity and expression of alkaline phosphatase (ALP), a marker for the differentiation of osteoblast cells, and the bone nodule formation using a mouse derived osteoblast-like cells, MC3T3-E1 (ATCC, Japan) or a primary mouse calvaria derived preosteoblastic cells were observed.
MC3T3-E 1 cells were seeded in a medium containing osteogenic factors (OF) such as ascorbic acids and β-glycerophosphates (b-GP), and each compound of Examples was added thereto at a concentration of 0.1, 1 and 10 μM. The cells were incubated for 6 days (MC3T3-E1 cells) or 7 days (primary mouse calvaria derived preosteoblastic cells) in a 37° C. CO2 incubator. Then, the culture medium was replaced with a fresh medium together with the test compound every two or three days. On the last day, the medium was centrifuged to remove the supernatant, and the cells were washed with PBS. The washed cells were subjected to a 3-cycle freege-thaw treatment using a −70° C. deep freezer to allow enzymes elute in a lysis buffer. The lysed protein was quantified, followed by measurement of ALP activity using 4-nitrophenylphosphate.
Further, a group treated only with DMSO or OF was tested for ALP activities for comparison.

Row | SMILES | activity at 10 µM
1 | CC(C)(C)OC(=O)N1CCN(CCOc2ccc3c(c2)C(=O)C(c2cccnc2)=C3c2ccccc2)CC1 [Example 44, tert-butyl 4-(2-(1-oxo-3-phenyl-2-(pyridin-3-yl)-1H-inden-6-yloxy)ethyl)piperazine-1-carboxylate] | 710%
2 | CS(=O)(=O)N1CCN(CCOc2ccc3c(c2)C(=O)C(c2cccnc2)=C3c2ccccc2)CC1 [Example 45, 6-[2-(4-(methylsulfonyl)piperazin-1-yl)ethoxy]-3-phenyl-2-(pyridin-3-yl)-1H-inden-1-one hydrochloride salt] | 192%
3 | O=C1C(c2cccnc2)=C(c2ccccc2)c2ccc(OCCN3CCNCC3)cc21 [Example 46, 6-(2-(piperazin-1-yl)ethoxy)-3-phenyl-2-(pyridin-3-yl)-1H-inden-1-one] | 107%
4 | CS(=O)(=O)N1CCN(CCOc2ccc3c(c2)C(=O)C(c2ccc(F)c(F)c2)=C3c2ccc(C(F)(F)F)cc2)CC1 [Example 48, 2-(3,4-difluorophenyl)-6-(2-(4-(methylsulfonyl)piperazin-1-yl)ethoxy)-3-(4-(trifluoromethyl)phenyl)-1H-inden-1-one] | 67%
5 | CS(=O)(=O)N1CCN(CCOc2ccc3c(c2)C(=O)C(c2cncnc2)=C3c2ccc(C(F)(F)F)cc2)CC1 [Example 49, 6-(2-(4-(methylsulfonyl)piperazin-1-yl)ethoxy)-2-(pyrimidin-5-yl)-3-(4-(trifluoromethyl)phenyl)-1H-inden-1-one] | 37%
6 | CS(=O)(=O)N1CCN(CCOc2ccc3c(c2)C(=O)C(c2ccc(F)c(F)c2)=C3c2cc(F)cc(F)c2)CC1 [Example 51, 2-(3,4-difluorophenyl)-3-(3,5-difluorophenyl)-6-(2-(4-(methylsulfonyl)piperazin-1-yl)ethoxy)-1H-inden-1-one hydrochloride salt] | 33%
7 | CS(=O)(=O)N1CCN(CCOc2ccc3c(c2)C(=O)C(c2cncnc2)=C3c2cc(F)cc(F)c2)CC1 [Example 52, 3-(3,5-difluorophenyl)-6-(2-(4-(methylsulfonyl)piperazin-1-yl)ethoxy)-2-(pyrimidin-5-yl)-1H-inden-1-one hydrochloride salt] | 50%
8 | CS(=O)(=O)N1CCN(CCOc2ccc3c(c2)C(=O)C(c2ccc(F)c(F)c2)=C3c2ccc(Cl)cc2)CC1 [Example 53, 3-(4-chlorophenyl)-2-(3,4-difluorophenyl)-6-(2-(4-(methylsulfonyl)piperazin-1-yl)ethoxy)-1H-inden-1-one hydrochloride salt] | 27%
9 | CS(=O)(=O)N1CCN(CCOc2ccc3c(c2)C(=O)C(c2cncnc2)=C3c2ccc(Cl)cc2)CC1 [Example 54, 3-(4-chlorophenyl)-6-(2-(4-(methylsulfonyl)piperazin-1-yl)ethoxy)-2-(pyrimidin-5-yl)-1H-inden-1-one hydrochloride salt] | 62%
10 | CC(C)(C)OC(=O)N1CCN(CCCOc2ccc3c(c2)C(=O)C(c2cccnc2)=C3c2ccccc2)CC1 [Example 55, tert-Butyl 4-(3-(1-oxo-3-phenyl-2-(pyridin-3-yl)-1H-inden-6-yloxy)propyl)piperazine-1-carboxylate] | 129%
11 | CN(C)CCOc1ccc2c(c1)C(=O)C(c1cccnc1)=C2c1ccccc1 [Example 56, 6-(2-(dimethylamino)ethoxy)-3-phenyl-2-(pyridin-3-yl)-1H-inden-1-one hydrochloride salt] | 71%
12 | CN(C)CCCOc1ccc2c(c1)C(=O)C(c1cccnc1)=C2c1ccccc1 [Example 57, 6-(3-(dimethylamino)propoxy)-3-phenyl-2-(pyridin-3-yl)-1H-inden-1-one hydrochloride salt] | 62%
13 | CC(C)(C)OC(=O)N1CCN(CCOc2ccc3c(c2)C(=O)C(c2cccnc2)=C3c2cc(F)cc(F)c2)CC1 [Example 58, tert-Butyl 4-(2-(3-(3,5-difluorophenyl)-1-oxo-2-(pyridin-3-yl)-1H-inden-6-yloxy)ethyl)piperazine-1-carboxylate] | 19%
